Source: PubChem BioAssay (NCI)
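Dose response: 5 concentrations. Exposure: 48 h. Format: 96-well plates. Endpoint: linear interpolation; highest concentration if not reached. At the TGI there is no net growth.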

Experiments:
Experiment in all cases: NCI anticancer screen, dose series, 48 h
[1] = test system: 786-0 renal
[2] = test system: A498 renal
[3] = test system: A549 NSCLC
[4] = test system: ACHN renal
[5] = test system: CAKI-1 renal
[6] = test system: CCRF-CEM leukemia
[7] = test system: COLO 205 colon
[8] = test system: DLD-1 colon
[9] = test system: DMS 114 small cell lung
[10] = test system: DMS 273 small cell lung
[11] = test system: EKVX NSCLC
[12] = test system: HCC-2998 colon
[13] = test system: HCT-116 colon
[14] = test system: HL-60(TB) leukemia
[15] = test system: HOP-18 NSCLC
[16] = test system: HOP-62 NSCLC
[17] = test system: HOP-92 NSCLC
[18] = test system: HT29 colon
[19] = test system: IGROV1 ovarian
[20] = test system: K-562 leukemia
[21] = test system: KM12 colon
[22] = test system: KM20L2 colon
[23] = test system: LOX IMVI melanoma
[24] = test system: LXFL 529 NSCLC
[25] = test system: M14 melanoma
[26] = test system: M19-MEL melanoma
[27] = test system: MALME-3M melanoma
[28] = test system: MOLT-4 leukemia
[29] = test system: NCI-H226 lung
[30] = test system: NCI-H23 lung
[31] = test system: NCI-H460 lung
[32] = test system: NCI-H522 lung
[33] = test system: OVCAR-3 ovarian
[34] = test system: OVCAR-4 ovarian
[35] = test system: OVCAR-5 ovarian
[36] = test system: OVCAR-8 ovarian
[37] = test system: RPMI-8226 leukemia
[38] = test system: RXF 393 renal
[39] = test system: SF-268 CNS
[40] = test system: SF-295 CNS
[41] = test system: SF-539 CNS
[42] = test system: SK-MEL-2 melanoma
[43] = test system: SK-MEL-28 melanoma
[44] = test system: SK-MEL-5 melanoma
[45] = test system: SK-OV-3 ovarian
[46] = test system: SN12C renal
[47] = test system: SNB-19 CNS
[48] = test system: SNB-75 CNS
[49] = test system: SR leukemia
[50] = test system: TK-10 renal
[51] = test system: U251 CNS
[52] = test system: UACC-257 melanoma
[53] = test system: UACC-62 melanoma
[54] = test system: UO-31 renal
[55] = test system: BT-549 breast
[56] = test system: DU-145 prostate
[57] = test system: HCT-15 colon
[58] = test system: HS 578T breast
[59] = test system: MCF7 breast
[60] = test system: MDA-MB-231 breast
[61] = test system: MDA-MB-435
[62] = test system: MDA-N
[63] = test system: NCI/ADR-RES ovarian
[64] = test system: PC-3 prostate
[65] = test system: SW-620 colon
[66] = test system: T-47D breast
[67] = test system: XF 498 CNS

## COC(=O)N1[C@H]2Cc3c(OC)c(C)c(OC)c(OC)c3[C@@H]1/C(=C\c1cc(OC)c(OC)c(C)c1OC)N(Cc1ccccc1)C2=O
[1]
  TGI: > 100 µM
[2]
  TGI: > 100 µM
[3]
  TGI: > 100 µM
[4]
  TGI: > 100 µM
[5]
  TGI: > 100 µM
[6]
  TGI: > 100 µM
[7]
  TGI: 32 µM
[8]
  TGI: > 100 µM
[9]
  TGI: 35.3 µM
[10]
  TGI: > 100 µM
[11]
  TGI: > 100 µM
[12]
  TGI: > 100 µM
[13]
  TGI: > 100 µM
[14]
  TGI: 30.2 µM
[15]
  TGI: > 100 µM
[16]
  TGI: > 100 µM
[17]
  TGI: > 100 µM
[18]
  TGI: > 100 µM
[19]
  TGI: > 100 µM
[20]
  TGI: > 100 µM
[21]
  TGI: > 100 µM
[22]
  TGI: > 100 µM
[23]
  TGI: > 100 µM
[24]
  TGI: > 100 µM
[25]
  TGI: > 100 µM
[26]
  TGI: 60 µM
[27]
  TGI: 88.7 µM
[28]
  TGI: 75.2 µM
[29]
  TGI: 11.7 µM
[30]
  TGI: > 100 µM
[31]
  TGI: > 100 µM
[32]
  TGI: 37.2 µM
[33]
  TGI: > 100 µM
[34]
  TGI: > 100 µM
[35]
  TGI: > 100 µM
[36]
  TGI: > 100 µM
[37]
  TGI: > 100 µM
[38]
  TGI: > 100 µM
[39]
  TGI: > 100 µM
[40]
  TGI: > 100 µM
[41]
  TGI: > 100 µM
[42]
  TGI: > 100 µM
[43]
  TGI: > 100 µM
[44]
  TGI: 53.8 µM
[45]
  TGI: > 100 µM
[46]
  TGI: > 100 µM
[47]
  TGI: > 100 µM
[48]
  TGI: > 100 µM
[49]
  TGI: 94.1 µM
[50]
  TGI: > 100 µM
[51]
  TGI: > 100 µM
[52]
  TGI: > 100 µM
[53]
  TGI: > 100 µM
[54]
  TGI: > 100 µM

## O=C(Cc1ccc(Cl)c(Cl)c1)NCCCN1CCN(CCCN2CCCCC2)CC1
[1]
  TGI: 31.7 µM
[2]
  TGI: 31 µM
[3]
  TGI: 49.5 µM
[4]
  TGI: 60.2 µM
[55]
  TGI: 57.4 µM
[5]
  TGI: 41.3 µM
[6]
  TGI: 34 µM
[7]
  TGI: 29.8 µM
[56]
  TGI: > 100 µM
[11]
  TGI: 39.3 µM
[12]
  TGI: 9.92 µM
[13]
  TGI: 32.9 µM
[57]
  TGI: 46.5 µM
[14]
  TGI: 37.2 µM
[16]
  TGI: 32.1 µM
[17]
  TGI: 24.8 µM
[58]
  TGI: > 100 µM
[18]
  TGI: 29.9 µM
[19]
  TGI: 75 µM
[20]
  TGI: 7.5 µM
[21]
  TGI: 31.2 µM
[23]
  TGI: 30.2 µM
[25]
  TGI: 43.1 µM
[27]
  TGI: 34.7 µM
[59]
  TGI: 34.2 µM
[60]
  TGI: 28.8 µM
[61]
  TGI: 4.11 µM
[62]
  TGI: 6.31 µM
[28]
  TGI: 28.8 µM
[29]
  TGI: 42.4 µM
[30]
  TGI: 42.6 µM
[31]
  TGI: 33.6 µM
[32]
  TGI: 35.1 µM
[63]
  TGI: > 100 µM
[33]
  TGI: 80.7 µM
[34]
  TGI: > 100 µM
[35]
  TGI: 46.6 µM
[36]
  TGI: > 100 µM
[64]
  TGI: 40.7 µM
[37]
  TGI: 16.3 µM
[38]
  TGI: 31.1 µM
[39]
  TGI: 50.4 µM
[40]
  TGI: 37.7 µM
[41]
  TGI: 28.8 µM
[42]
  TGI: 21.6 µM
[43]
  TGI: 4.95 µM
[44]
  TGI: 22.1 µM
[45]
  TGI: 40.8 µM
[46]
  TGI: 39 µM
[47]
  TGI: 63.9 µM
[48]
  TGI: 49.3 µM
[49]
  TGI: 29 µM
[65]
  TGI: 46.7 µM
[66]
  TGI: 44.4 µM
[50]
  TGI: 32.3 µM
[51]
  TGI: 32.5 µM
[52]
  TGI: 19.6 µM
[53]
  TGI: 13.8 µM
[54]
  TGI: 3.63 µM

## c1cnc2c(c1)-n1cccc1C1(CCOCC1)NN2
[1]
  TGI: > 100 µM
[2]
  TGI: > 100 µM
[3]
  TGI: > 100 µM
[4]
  TGI: > 100 µM
[5]
  TGI: > 100 µM
[6]
  TGI: > 100 µM
[7]
  TGI: > 100 µM
[8]
  TGI: > 100 µM
[9]
  TGI: > 100 µM
[10]
  TGI: > 100 µM
[11]
  TGI: > 100 µM
[12]
  TGI: > 100 µM
[13]
  TGI: > 100 µM
[57]
  TGI: > 100 µM
[14]
  TGI: > 100 µM
[15]
  TGI: > 100 µM
[17]
  TGI: > 100 µM
[18]
  TGI: > 100 µM
[19]
  TGI: > 100 µM
[20]
  TGI: > 100 µM
[21]
  TGI: > 100 µM
[22]
  TGI: > 100 µM
[24]
  TGI: > 100 µM
[25]
  TGI: > 100 µM
[26]
  TGI: > 100 µM
[27]
  TGI: > 100 µM
[28]
  TGI: > 100 µM
[29]
  TGI: > 100 µM
[30]
  TGI: > 100 µM
[31]
  TGI: > 100 µM
[32]
  TGI: > 100 µM
[33]
  TGI: > 100 µM
[34]
  TGI: > 100 µM
[36]
  TGI: > 100 µM
[37]
  TGI: > 100 µM
[38]
  TGI: > 100 µM
[39]
  TGI: > 100 µM
[40]
  TGI: > 100 µM
[41]
  TGI: > 100 µM
[42]
  TGI: > 100 µM
[43]
  TGI: > 100 µM
[44]
  TGI: > 100 µM
[45]
  TGI: > 100 µM
[46]
  TGI: > 100 µM
[47]
  TGI: > 100 µM
[48]
  TGI: > 100 µM
[49]
  TGI: > 100 µM
[65]
  TGI: > 100 µM
[50]
  TGI: > 100 µM
[51]
  TGI: > 100 µM
[54]
  TGI: > 100 µM
[67]
  TGI: > 100 µM
